# Patent US9096492B2, “Hydrated N-fullerene amino acids, method for producing the latter, and pharmaceutical compositions on the basis thereof” (priority 2011, dated 2015)
# “And” between values parts separate entries of the source, which are not always exact repeats. Equal values may be shown once. Read-outs that look alike come from different tables or passages of the source.
# Experiments:
# [1] = test system: ascites Ehrlich carcinoma cells; assay: Apoptosis in ascites Ehrlich carcinoma cells of treated mice (cytofluorimetric analysis); assay type: in vivo
# [2] = test system: solid Ehrlich carcinoma; assay: Solid Ehrlich carcinoma in white mice, tumor size dynamics; settings: Cisplatin 5 mg/kg once
# [3] = test system: Ehrlich ascites carcinoma; assay: Ehrlich ascites carcinoma in white mice, body weight dynamics
# [4] = test system: A/Swine/1976/31 (H1N1) influenza virus; assay type: in vivo, mice; settings: Tamiflu 20 mg/kg; for Infectious virus titer (log10EID50/20 mg tissue): lung tissue
# [5] = Antitumor activity of the Example 3 compound
# [6] = test system: HIV, HSV, and influenza virus; assay: Antiviral activity of the Example 3 compound; settings: against HIV
# Text: The antiviral activity of the compound was studied against HIV, HSV, and influenza virus; its antitumor activity was also studied. The compound has high antitumor and antiviral activities against all of the aforementioned viruses. Preferred example embodiments of the invention are given below.
# [7] = Solubility of the isolated product
# [8] = ascites cells having large sizes and granularity (tumor cells)
# [9] = ascites cells of moderate size and granularity
compound,measurement,setting,value
"N.N.[Cl][Pt][Cl] [Cisplatin, reference compound]",AnV^+ 7AAD^+ (late apoptosis),[1]; [8],72.8 ± 10.9%
same,AnV^+ 7AAD^− (early apoptosis),[1]; [8],0.3 ± 0.3%
same,AnV^−7AAD^+ (necrosis),[1]; [8],26.6% and 26.6 ± 11.1%
same,AnV^−7AAD^− (living cells),[1]; [8],0.4 ± 0.2%
same,Percent amount of cells with the phenotype AnV^+ 7AAD^+ (late apoptosis),[1]; [9],3.5 ± 2.4%
same,Percent amount of cells with the phenotype AnV^+ 7AAD^− early apoptosis,[1]; [9],41.1 ± 11.3%
same,Percent amount of cells with the phenotype AnV^−7AAD^+ (necrosis),[1]; [9],0.1 ± 0.2%
same,Percent amount of cells with the phenotype AnV^−7AAD^− (living cells),[1]; [9],55.2 ± 11.0%
same,Tumor size (mm^3),[2]; day 8 post transplantation,56.5 mm^3
same,Tumor size (mm^3),[2]; day 13 post transplantation,249.2 mm^3
same,Tumor size (mm^3),[2]; day 17 post transplantation,464.3 mm^3
same,Tumor size (mm^3),[2]; day 21 post transplantation,1071.9 mm^3
same,Tumor size (mm^3),[2]; day 24 post transplantation,1743.3 mm^3
same,Tumor size (mm^3),[2]; day 28 post transplantation,1269.4 mm^3
same,Animal body weight,[3]; day 1 post tumor transplantation,19.1 ± 5 g
same,Animal body weight,[3]; day 3 post tumor transplantation,19.3 ± 2.7 g
same,Animal body weight,[3]; day 5 post tumor transplantation,19.4 ± 2.5 g
same,Animal body weight,[3]; day 8 post tumor transplantation,19.8 ± 2.2 g
same,Animal body weight,[3]; day 10 post tumor transplantation,20.7 ± 2.4 g
same,Animal body weight,[3]; day 13 post tumor transplantation,21.4 ± 1.5 g
same,Animal body weight,[3]; day 15 post tumor transplantation,21.8 ± 1.6 g
"CCOC(=O)C1=C[C@@H](OC(CC)CC)[C@H](NC(C)=O)[C@@H](N)C1.O=P(O)(O)O [Tamiflu, ethyl(3R,4R,5S)-4-acetamido-5-amino-3-(1-ethylpropoxy)-1-cyclohexene-1-carboxylate phosphate, reference compound]",Average lifetime (LD),"[4]; Summary dose, n=26",12.2 days
same,Increase in LD,"[4]; Summary dose, n=26",3.6 days
same,Index of protection,"[4]; Summary dose, n=26",62.8
same,"Mortality rate, %","[4]; Summary dose, n=26",26.9%
same,Number of survivors,"[4]; Summary dose, n=26",19
same,Size of chronic post-influenza pneumonia sites (% of the total surface area of the lungs),"[4]; the lower of the virus doses used, day 15",20 ± 5%
same,Average lifetime (LD),"[4]; virus 1 LD50, n=13",13.5 days
same,Increase in LD,"[4]; virus 1 LD50, n=13",2.9 days
same,Index of protection,"[4]; virus 1 LD50, n=13",71.2
same,"Mortality rate, %","[4]; virus 1 LD50, n=13",15.4%
same,Number of survivors,"[4]; virus 1 LD50, n=13",11
same,Average lifetime (LD),"[4]; virus 10 LD50, n=13",11.0 days
same,Increase in LD,"[4]; virus 10 LD50, n=13",4.4 days
same,Index of protection,"[4]; virus 10 LD50, n=13",58.6
same,"Mortality rate, %","[4]; virus 10 LD50, n=13",38.5%
same,Number of survivors,"[4]; virus 10 LD50, n=13",8
same,Infectious virus titer (log10EID50/20 mg tissue),[4]; virus dose 1 LD50,3.1 ± 0.1 log10EID50/20 mg tissue
same,Infectious virus titer (log10EID50/20 mg tissue),[4]; virus dose 5 LD50,3.8 ± 0.3 log10EID50/20 mg tissue
N-fullerene tris(8-aminooctanoic acid hydrate) [Example 3],antitumor activity,[5],high
same,antiviral activity,[6],high
N-fullerene tris-ω-aminoenanthic acid) hydrate [Example 2],solubility in CH3CN:H2O (1:10),[7],soluble
same,solubility in DMF-H2O (1:100),[7],soluble
same,solubility in water,[7],soluble
